We go through 87 molecules from a melting point compilation (Tetko et al.; mined from patent text by program, amines drawn as free bases though some values may be those of a salt).

Take `COc1cc2nc(NCCNCC(O)COc3ccccc3)nc(N)c2cc1OC` (configuration not stated): the melting point is 122 to 124 °C.

In turn, `Cc1c(C(=O)NNC(C)(C)C)ccc2c1CCCO2` returned a melting point of 146 to 148 °C. The result for `CC(C)N1C(=O)c2cncnc2N(C(=O)CN2CCN(C)CC2)c2ccccc21` reads 133 to 135 °C. For `NS(=O)(=O)c1ccc(-n2nc(CC(=O)O)cc2-c2ccc(Cl)cc2)cc1`, the melting point lay within 120 to 122 °C. The result for `CS(=O)(=O)c1ccc(-c2sc(Nc3ccc(C#N)cc3)nc2-c2ccc(F)cc2)cc1` reads 273 to 274 °C; that for `CCS(=O)(=O)NCc1ccc2[nH]cc(CCCN3CCN(c4ncncc4OC)C(C)C3)c2c1` (configuration not stated), 202 to 210 °C; that for `O=C(Nc1ccc(C(=O)N2Cc3ccccc3Cc3ccccc32)cc1)c1ccc(F)cc1F`, 215 to 217 °C. The result for `CCCCc1nc(Cl)c(CO)n1Cc1ccc(-c2ccccc2-c2nnnn2-c2ccc([N+](=O)[O-])cc2)cc1` reads 182 to 186 °C. `CC1CCCN1c1ccccc1NC(N)=S` (configuration not stated): the melting point lay within 145 to 148 °C. Regarding `c1ccc(CN2CCN(CCCCc3c[nH]c4ccc(-n5cnnc5)cc34)CC2)nc1`, the melting point lay in the range of 115 to 118 °C. `Cc1ccccc1-c1c(CS)n(C)c(=O)c2ccccc12` gave a melting point of 184 to 186 °C. The result for `CC(Oc1ccccc1)(c1ccc(O)cc1)c1ccc(O)cc1` reads 172 to 174 °C; that for `COc1ccc(-c2ccc(O)c(C3(C)CCCCC3)c2)cc1CC1SC(N2CCCC2)=NC1=O` (configuration not stated), 121 to 122 °C. The result for `CN(C)C(=O)Nc1c(C(=O)c2ccccc2)[nH]c2cc(Cl)ccc12` reads 222 to 223 °C; that for `N#CC(CCN1C2CCC1CC2)(c1ccccc1)c1ccccc1`, 79 to 81 °C. The result for `CC(=O)c1cc(CN2CCN(CCO)CC2)ccc1O` reads 72 to 75 °C. As for `COc1ccc(Cn2nnnc2C2N3C(=O)C(NC(c4ccccc4)(c4ccccc4)c4ccccc4)C3SC2(C)C)cc1` (configuration not stated), the melting point was in the range of 178 to 182 °C. `CC(C)(C)OC(=O)c1nc(-c2cccc3ccccc23)[nH]c1-c1ccncc1` displayed a melting point of 184 to 190 °C. In turn, `Cc1onc(NS(=O)(=O)c2ccccc2)c1Cl` displayed a melting point of 139 to 141 °C. `NC(=O)c1nc(-c2cccc(O)c2)nc2c1[nH]c(=O)n2CC1CCCCC1`: the melting point fell in the range of 368 to 370 °C. As for `CCOC(=O)CCn1c(C(=O)Nc2nc(-c3cc(OC)c(Cl)cc3OC)c(CCC3CCCCC3)s2)cc2ccccc21`, the melting point fell in the range of 79 to 85 °C. The result for `COC(=O)Cn1nnnc1CCC(NC(=O)CCC(C)(NC(=O)OCc1ccccc1)C(=O)O)C(=O)OC` (configuration not stated) reads 64 to 65 °C; that for `CC(C)(CCc1cc2nc(Cl)ccc2n1S(=O)(=O)c1ccc2ncsc2c1)C(=O)O`, 21 °C; that for `ON=C(Cn1ccnc1)c1ccc(Cl)cc1`, 185 to 186 °C. In the case of `O=[N+]([O-])C=C1CCCN1C1=CC(CF)(CF)Oc2ccc(C(F)(F)C(F)(F)F)cc21`, the melting point lay within 195 to 197 °C. The result for `O=C(NCCN1CCOCC1)Nc1nc2ccc(OCc3c(F)cccc3Cl)cc2s1` reads 210 °C; that for `O=C(O)Cc1c(C(=O)c2ccncc2)[nH]c2cc(Cl)ccc12`, 256 to 257 °C; that for `Cc1c(NC(=O)CC(C)(C)C)cc2c(c1C)OC(C)(C)C2c1ccc(Br)cc1` (configuration not stated), 171 to 172 °C. The result for `CCNC(=O)Nc1nc2cc(-c3cccnc3)cc(N3CCC(N(C)C)C3)n2n1` (configuration not stated) reads 248 to 250 °C. On to `CCOC(=O)N1CCN(c2nnc(N)[nH]2)CC1`, for which the melting point was 196 to 198 °C. The result for `Cc1c(NC(=O)Nc2ccc(-n3nc(C(F)(F)F)cc3C(F)(F)F)cc2)cccc1[N+](=O)[O-]` reads 235 to 236 °C; that for `O=C(CCl)Cc1nc2ccccc2c(=O)n1-c1ccc(Cl)cc1`, over 275 °C; that for `COc1cc(-c2cc3ccccc3[nH]2)ccc1O`, 165 °C.

In turn, `Cc1nc2c(cc1C(=O)O)CCCCC2` yielded a melting point of 167 to 169 °C.

As to `CCCCN1CCn2c1nc(C(=O)NCc1ccc(F)cc1-n1cnc(C)n1)c(O)c2=O`, the melting point worked out at 214 °C.

For the molecule `CN1CN(c2cccc([N+](=O)[O-])c2)c2ncccc2C1=O`, the melting point fell in the range of 247 to 248 °C. The result for `CC(=O)COC1CC2C3CCC4=CC(=O)CCC4(C)C3(F)C(O)CC2(C)C1(O)C(=O)CO` (configuration not stated) reads 203 to 208 °C; that for `C#CCn1cc(C(=O)OCC)sc1=O`, 70 to 71 °C; that for `CCCCCCNC(=O)C1CCCN1` (configuration not stated), 61 to 64 °C. The result for `Cc1ccc(Cl)c(Nc2ccccc2-c2nnc(S(C)=O)s2)c1Cl` (configuration not stated) reads 158 to 160 °C; that for `COc1ccc(-c2coc3cc(OCC(O)CNC4CCCCC4)ccc3c2=O)cc1OC` (configuration not stated), 70 to 71 °C; that for `O=C(NCc1ccc(Cl)cc1)c1cnc2ccc(O)cc2c1O`, 319 to 320 °C. Molecule `CNC(=O)Nc1cc(C(C)(C)C)c2c(c1)C(C)(C)CS2` yielded a melting point of over 150 °C. The molecule `COC(=O)c1cccc(C)c1S(=O)(=O)Cl` showed a melting point of 114 to 116 °C. In turn, `CCOC(=O)c1cn(-c2c(F)cc(F)c([N+](=O)[O-])c2F)c2c(Cl)c(F)c(F)cc2c1=O` gave a melting point of 167 to 169 °C. In turn, `Oc1ccc(CN2CC=CCC2)cc1O` had a melting point of over 300 °C. The result for `CC(=O)N1N=C(c2ccc(N)cc2)c2cc(Cl)c(Cl)cc2CC1C` (configuration not stated) reads 242 to 243 °C; that for `Cc1ccc(-c2nnn(C(c3ccccc3)(c3ccccc3)c3ccccc3)n2)cc1`, 172 to 175 °C; that for `COc1ccc(OCC(O)COc2cccc(O)c2C(C)=O)cc1` (configuration not stated), 100 to 102 °C.

As for `CC(C)(C)[Si](C)(C)O[C@@H]1C=CO[C@H](CO)[C@H]1O`, the melting point was in the range of 55 to 56 °C.

The molecule `COc1cc(C=C(C)C(=O)O)ccc1O` registered a melting point of 144 to 145 °C. Consider `N#Cc1ccc(-c2ccncc2OC2SCC(O)C(O)C2O)cc1` (configuration not stated), for which the melting point amounted to 238 °C. The result for `N#CC(SSC(C#N)c1c[nH]c2ccccc12)c1c[nH]c2ccccc12` (configuration not stated) reads 169 to 170 °C. In turn, `COC(=O)C1CCC(C)(C(=O)c2ccc(OC)cc2OC)C1(C)C` (configuration not stated) had a melting point of 108 °C. Molecule `O=C(NO)c1ccc(CNC(=O)c2[nH]c(-c3cccs3)cc2-c2ccc(F)cc2)nc1` had a melting point of 151 to 152 °C. The result for `Cc1cc(I)ccc1Nc1c(C(=O)O)cc(F)c(F)c1F` reads 206 to 210 °C; that for `O=C(Oc1ccc(OC(=O)c2cc(O)cc(O)c2)c2ccccc12)c1cc(O)cc(O)c1`, 201 to 203 °C.

On to `CCCC1N(C)c2cccc3cccc(c23)N1C`, for which the melting point was 70 to 71 °C. `COc1ccccc1-c1ccc2ccc(NC(=O)c3cccc(Br)c3)nc2n1` displayed a melting point of 110 °C.

With `Nc1sc2c(c1C(=O)c1ccco1)CCCC2`, the melting point was 121 to 122 °C.

As for `COc1c(-c2ccccc2)c2ccc(-c3ccc(C(C)C)cc3)cc2oc1=O`, the melting point was found to be 85.5 °C. For `CCOC(=O)C(NC(=O)C(C)C)C(=O)Cc1ccc(Cl)cc1Cl` (configuration not stated), the melting point lay in the range of 139 to 140 °C. Take `c1ccc2cc(CCNc3ncnc4ccccc34)ccc2c1`: the melting point fell in the range of 172 to 174 °C. The result for `O=C(Cc1c(-c2ccccc2)c2cc(O)c(Cl)cc2oc1=O)Nc1ccc(F)cc1C(F)(F)F` reads 240 to 243 °C. The result for `Cc1c(-c2ccc(F)cc2)[nH]c(N2CCOCC2)c1C#N` reads 245 to 247 °C. Turning to `Cc1c(C)c2c(c(C)c1NC(=O)CC(C)(C)C)OC(C)(C)C2c1ccc(C(C)C)cc1` (configuration not stated), the melting point was 128 to 129 °C. The result for `N#Cc1cc2c(cc1C(F)(F)F)[nH]c(=O)c(=O)n2OCc1ccccc1` reads 265 °C; that for `CCCc1c(C(=O)N(CC)CC)ccc(OC)c1OC`, 65 to 67 °C; that for `Cc1cc(F)ccc1-c1nc(NC2CCCCC2)nc2c1ccc(=O)n2-c1ccccc1F`, 181 to 182 °C. The result for `N[C@@H](Cc1c[nH]c2ccccc12)c1nc2c(C(F)(F)F)cccc2c(O)c1C(=O)Nc1nccs1` reads 190 °C.

Molecule `COc1nc(C)c(CCN2CC=C(c3c[nH]c4ccccc34)CC2)c(=O)n1C` gave a melting point of 209 to 211 °C. Regarding `Cc1ccccc1-n1ccc2c(Cl)nc3c(C)cccc3c21`, the melting point fell in the range of 135 to 137 °C. As to `CNC(=O)NN(CC(=O)OC)c1cccc(Cl)c1`, the melting point fell in the range of 121 to 122 °C. As to `O=C(Nc1ccc(-n2nc(C(F)(F)F)cc2C(F)(F)F)cc1F)c1ccc(F)cc1F`, the melting point is 66 to 67 °C. The result for `Cc1ccc2c(c1Cl)C(=O)N(C(C)(C(N)=O)C(C)C)C2=O` (configuration not stated) reads 215 to 218 °C; that for `CCOc1nc(OCC)c2cscc2n1`, 84 to 86 °C; that for `CC(=O)NCC1CC(c2ccc(-n3ccc(C=NO)c3)c(F)c2)=NO1` (single isomer, unassigned; (-)), 216 to 217 °C. The result for `O=C(NCc1ccc(F)cc1)Nc1ccc(CN2C(=O)[C@H]3CCC[C@H]3N(C(=O)CCl)c3ccccc32)cc1` (relative stereo) reads 202 to 203 °C; that for `OCc1sc(Cl)nc1-c1ccc(Cl)cc1`, 113 to 114 °C. For `CC[C@]1(C(=O)NCC=Cc2ccccc2F)[C@H](C)C1(Cl)Cl` (relative stereo), the melting point lay in the range of 103 to 105 °C. The result for `COC(=O)C(=Cc1cccc(O)c1)NC(C)=O` reads 115 °C; that for `Cc1cc(N)nc(CCC(=O)Nc2cc(I)cnc2N)c1`, 172 °C.

The molecule `N[C@H]1CCN(c2ccc3c(C(=O)NCC4CCCCC4)cccc3n2)C1` gave a melting point of 127 to 128 °C. The result for `O=C(Cl)c1ccccc1NC(=O)c1ccccc1-c1ccccc1` reads 118 to 120 °C; that for `CS(=O)(=O)Nc1cccc2c(-c3ccccc3)c([N+](=O)[O-])oc12`, 169 to 172 °C.

`Cc1c(Cl)cccc1S(=O)(=O)Nc1ccc2nc(C)n(C)c2c1`: the melting point was 265 to 266 °C. The result for `CC(C)(C)OC(=O)C1=Cc2cc(Br)ccc2OC1` reads 96 to 97 °C.
